Measured values as given in PMC5093207, “Pre-clinical Evaluation of a Cyanine-Based SPECT Probe for Multimodal Tumor Necrosis Imaging” (Molecular Imaging and Biology, 2016).

How the values were obtained:
4T1 tumor bearing mice = test: Biodistribution (gamma counting of organs) in 4T1 tumor bearing mice, model of spontaneous tumor necrosis; type: in vivo, mouse; conditions: 24 h after i.v. injection, 10 μg, 30-35 MBq
Experimental: Approximately 1 × 10^5 4T1-luc2 cells, suspended in 15 μl PBS, were implanted bilateral and subcutaneously onto the upper back of nude mice. Tumors were grown until they reached a size of 6–7 mm in diameter which developed roughly after 1.5–2 weeks of tumor implantation.
(§1) To study the specificity of the radiolabeled HQ4-DTPA versus radiolabeled DTPA in vivo, 10 μg [^111In]DTPA-HQ4 (=10 nmol per mouse) or 10 μg [^111In]DTPA was injected i.v. into mice bearing 4T1-luc2 tumors (n = 3 and 4, respectively). The total injected dose (ID) in each mouse was determined in a dose-calibrator (VDC101, Veenstra Instruments, Joure, the Netherlands).
After the last imaging time point, mice were sacrificed and several tissues were excised, weighed, and counted for radioactivity (Wizard2 2470 automatic gamma scintillation counter, Perkin Elmer, USA) to determine the percentage of the injected dose per gram (%ID/g). The %ID/g was calculated as follows: (((MBq measured in tissue/injected dose) × 100 %) / weight of tissue).
Fig. 3 Optical imaging, SPECT, and biodistribution of [^111In]DTPA-HQ4 in 4T1 breast tumor bearing mice. a Whole body FLI (coronal view) obtained 6–72 h after tail vein injection of [^111In]DTPA-HQ4 (10 nmol, 30–35 MBq). […] Six, 24, 48, and 72 h after probe injection, mice (n = 3 per time point) were sacrificed and the organs, body fluids, and tumors were dissected, weighed, and measured for radioactivity in a gamma counter. At each time point, the amount of radioactivity in the organs is expressed as percentage of the injected dose divided by […] (%ID/w). d TUNEL-stained histological section of a representative 4T1 mouse breast tumor showing a large area of necrosis (brown).
Supplementary Figure 4: Biodistribution of [111In]DTPA. a) Biodistribution of the free chelate [111In]DTPA in 4T1 tumor bearing mice. 24h after probe injection (10 µg, 30-35 MBq), mice (n=4) were sacrificed and the organs, body fluids and tumors were dissected, weighted and measured for radioactivity in a gamma counter. […]

[1] = Radioactivity remaining in the whole mouse body after injection (clearance); type: in vivo; conditions: for total injected dose retained in the body: whole mouse body
Experimental: as §1
Supplementary Figure 4: Biodistribution of [111In]DTPA. a) Biodistribution of the free chelate [111In]DTPA in 4T1 tumor bearing mice. 24h after probe injection (10 µg, 30-35 MBq), mice (n=4) were sacrificed and the organs, body fluids and tumors were dissected, weighted and measured for radioactivity in a gamma counter. At each time point, the amount of radioactivity in each organ and tumor is expressed as percentage of the injected dose divided by the weight (%ID/w). b) Total amount of remaining [111In]DTPA-HQ4 and [111In]DTPA in the whole mouse body (% of ID) at the indicated time points 6 to 72h after probe injection.
(§2) (1 picture or pasted object on this page, not shown here)

4T1-luc2 cells [2] = test: Dry ice dead cell assay (cryo-induced cell death), fluorescence and radioactivity read-out; type: cell-based, mouse; conditions: 100 nM, 15 min incubation, 4T1 cells; for accumulation in the dead cells area by radioactivity (RA) measurement: phosphor imaging
Experimental: In vitro, cell death was studied using a cryo-induced cell death assay as previously described. In short, 4T1-luc2 cells were seeded onto 24-well tissue culture plates (Sigma-Aldrich) and grown until confluent. After discarding the medium, a bar of dry ice 3–5 mm in diameter was applied to the underside of the culture well for 20 s. Subsequently, the cells were incubated in the dark for 15 min at RT with HQ4 at a concentration of 100 nM. After incubation, the samples were gently washed with phosphate-buffered saline (PBS) and subsequently scanned for fluorescence using the Odyssey Infrared Imager 9120 (LI-COR) and for radioactivity via phosphor imaging on the Typhoon 9410 imager (GE Healthcare).
Fig. 2 In vitro necrosis avid properties of [^111In]DTPA-HQ4 by fluorescence and radioactivity measurements. a Necrotic cell death in confluent monolayers of 4T1 mouse breast cancer cells was induced by applying dry ice to the underside of the culture well. Cells were subsequently incubated for 15 min with one of the following: HQ4, HQ4-DTPA, [^111In]DTPA-HQ4, [^111In]DTPA, or ^111In-Cl3 (100 nM, 10 μg). After subsequent washing with PBS, cells were imaged either for fluorescence (FLI, upper panel) or for radioactivity (RA, lower panel). NL = not labeled. b Calculated signal-to-background (S/B) ratio (FLI and RA) of the different compounds obtained from the dry ice assay. The S/B ratio was defined as the signal intensity obtained from the area of dead cells in the center of the well divided by the signal intensity obtained from an area of living cells of the same size in the periphery.

4T1-luc2 cells [3] = test: In vitro MTS viability assay; type: cell-based; conditions: Mus musculus, 24 h, 4T1 cells, read-out: IC50 of induced cell death
Experimental: 4T1-luc2 cells were plated in a 96-well plate (Costar) in 100 μl medium at a density of 10,000 cells per well and left over night to adhere. The next day, the medium was replaced with medium containing the experimental compounds: HQ4, HQ4-DTPA, HQ5, and Gambogic acid (GA), three wells per condition. After 24 h, cell viability was measured using a nonradioactive colorimetric MTS viability assay (Promega Benelux) according to the manufacturer’s protocol. Optical absorption was measured at 490 nm with a Versamax absorbance microplate reader (Molecular Devices).
Supplementary Figure 3: MTS cell viability assay of various agents.
Confluent cultures of 4T1 cells were incubated for 24hr with various concentrations HQ4, HQ4-DTPA, HQ5 or the natural anti-cancer compound Gambogic Acid (GA). Relative cell viability (%) was expressed as a percentage relative to the untreated control.
GA induced cell death with an IC50 of around 6µM.
as §2

## O=C([O-])CN(CCN(CC(=O)[O-])CC(=O)[O-])CCN(CC(=O)[O-])CC(=O)[O-].[111In+3].[H+].[H+] [[^111In]DTPA]
4T1 tumor bearing mice
  radioactivity in kidneys: 5.0 %ID/w
  radioactivity in liver: 0.6 %ID/w
  radioactivity in tumors: 0.5 %ID/w
[1]; 24 h after injection
  total injected dose retained in the body: 10%
[1]; 48 h after injection
  total injected dose retained in the body: 8%
[1]; fold faster than [111In]DTPA-HQ4
  clearance rate relative to [111In]DTPA-HQ4: about 8 fold
4T1-luc2 cells [2]
  accumulation in the dead cells area by radioactivity (RA) measurement: neither [^111In]DTPA nor free ^111In-Cl3 accumulated in the dead cells area

## CC(C)=CCC[C@]1(C)C=Cc2c(O)c3c(c(CC=C(C)C)c2O1)O[C@]12C(=C[C@@H]4C[C@H]1C(C)(C)O[C@@]2(C/C=C(/C)C(=O)O)C4=O)C3=O [GA, Gambogic acid]
4T1-luc2 cells [3]
  IC50: ~6 µM

## CCCNS(=O)(=O)c1cccc2c3c(ccc12)[N+](CCCCCC(=O)NCCOCCOCCNC(=O)CN(CCN(CCN(CC(=O)O)CC(=O)O)CC(=O)O)CC(=O)O)=C(/C=C/C=C/C=C1/N(CCCCS(=O)(=O)[O-])c2ccc4ccccc4c2C1(C)C)C3(C)C [HQ4-DTPA]
4T1-luc2 cells [2]; FLI
  accumulation in the area of dead cells by fluorescence imaging: strongly accumulated in the area of dead cells

## [Cl][In]([Cl])[Cl] [^111In-Cl3, ^111indium-chloride]
4T1-luc2 cells [2]
  accumulation in the dead cells area by radioactivity (RA) measurement: neither [^111In]DTPA nor free ^111In-Cl3 accumulated in the dead cells area
